Data published in ChEMBL document CHEMBL5321210, “N-adamantyl-anthranil amide derivatives: New selective ligands for the cannabinoid receptor subtype 2 (CB2R)” (Eur J Med Chem, 2023).
Activity calls are given as the source filed them. The calls are words filed in the database; no cut-off is given here.

What was measured:
THP-1 [1] = assay: Antiinflammatory activity against LPS-activated PMA-differentiated human THP-1 monocytes assessed as decrease in IFN-gamma production at 10 uM incubated for 24 hrs in the presence of N-(adamantan-1-yl)-4-(pentylamino)-[1,1'-biphenyl]-3-carboxamide by ELISA coupled qRT-PCR analysis; format: functional, cell-based
THP-1 [2] = assay: Antiinflammatory activity in PMA-differentiated human THP-1 monocytes assessed as decrease in TNF-alpha production at 10 uM incubated for 24 hrs in the presence of N-(adamantan-1-yl)-4-(pentylamino)-[1,1'-biphenyl]-3-carboxamide by ELISA coupled qRT-PCR analysis; format: functional, cell-based
THP-1 [3] = assay: Antiinflammatory activity in human THP-1 monocytes assessed as decrease in IFN-gamma production at 10 uM incubated for 24 hrs by ELISA coupled qRT-PCR analysis relative to control; format: functional; set-up: scale not given: the % may be the effect or the level left
THP-1 [4] = assay: Antiinflammatory activity against LPS-activated human THP-1 monocytes assessed as increase in IL-10 production at 10 uM incubated for 24 hrs by ELISA coupled qRT-PCR analysis; format: functional, cell-based
THP-1 [5] = assay: Antiinflammatory activity against LPS-activated human THP-1 monocytes assessed as decrease in IL-1beta production at 10 uM incubated for 24 hrs by ELISA coupled qRT-PCR analysis; format: functional, cell-based
THP-1 [6] = assay: Antiinflammatory activity in LPS-activated PMA-differentiated human THP-1 macrophages assessed as increase in IL-10 production at 10 uM incubated for 24 hrs in the presence of JTE907 by ELISA coupled qRT-PCR analysis; format: functional, cell-based
THP-1 [7] = assay: Antiinflammatory activity in LPS-activated PMA-differentiated human THP-1 macrophages assessed as increase in IL-4 production at 10 uM incubated for 24 hrs in the presence of JTE907 by ELISA coupled qRT-PCR analysis; format: functional, cell-based
THP-1 [8] = assay: Antiinflammatory activity against LPS-activated PMA-differentiated human THP-1 monocytes assessed as increase in IL-10 production at 10 uM incubated for 24 hrs in the presence of N-(adamantan-1-yl)-4-(pentylamino)-[1,1'-biphenyl]-3-carboxamide by ELISA coupled qRT-PCR analysis; format: functional, cell-based
THP-1 [9] = assay: Antiinflammatory against LPS-activated human THP-1 monocytes assessed as decrease in IL-1beta production at 10 uM incubated for 24 hrs in the presence of JTE907 by ELISA coupled qRT-PCR analysis; format: functional, cell-based
THP-1 [10] = assay: Antiinflammatory activity in human THP-1 monocytes assessed as decrease in IL-6 production at 10 uM incubated for 24 hrs by ELISA coupled qRT-PCR analysis relative to control; format: functional; set-up: scale not given: the % may be the effect or the level left
THP-1 [11] = assay: Antiinflammatory activity in PMA-differentiated human THP-1 monocytes assessed as increase in IL-10 production at 10 uM incubated for 24 hrs in the presence of N-(adamantan-1-yl)-4-(pentylamino)-[1,1'-biphenyl]-3-carboxamide by ELISA coupled qRT-PCR analysis; format: functional, cell-based
THP-1 [12] = assay: Antiinflammatory activity in PMA-differentiated human THP-1 macrophages assessed as decrease in IL-6 production at 10 uM incubated for 24 hrs in the presence of JTE907 by ELISA coupled qRT-PCR analysis; format: functional, cell-based
THP-1 [13] = assay: Antiinflammatory activity in human THP-1 monocytes assessed as decrease in IL-1beta production at 10 uM incubated for 24 hrs in the presence of JTE907 by ELISA coupled qRT-PCR analysis; format: functional, cell-based
THP-1 [14] = assay: Antiinflammatory activity against LPS-activated human THP-1 monocytes assessed as increase in IL-4 production at 10 uM incubated for 24 hrs in the presence of N-(adamantan-1-yl)-4-(pentylamino)-[1,1'-biphenyl]-3-carboxamide by ELISA coupled qRT-PCR analysis; format: functional, cell-based
THP-1 [15] = assay: Antiinflammatory activity against LPS-activated human THP-1 monocytes assessed as decrease in TNF-alpha production at 10 uM incubated for 24 hrs by ELISA coupled qRT-PCR analysis; format: functional, cell-based
THP-1 [16] = assay: Antiinflammatory activity against LPS-activated human THP-1 monocytes assessed as increase in IL-4 production at 10 uM incubated for 24 hrs by ELISA coupled qRT-PCR analysis; format: functional, cell-based
THP-1 [17] = assay: Antiinflammatory activity in human THP-1 monocytes assessed as increase in IL-10 production at 10 uM incubated for 24 hrs in the presence of JTE907 by ELISA coupled qRT-PCR analysis; format: functional, cell-based
THP-1 [18] = assay: Antiinflammatory activity against LPS-activated human THP-1 monocytes assessed as decrease in IFN-gamma production at 10 uM incubated for 24 hrs by ELISA coupled qRT-PCR analysis; format: functional, cell-based
THP-1 [19] = assay: Antiinflammatory activity in human THP-1 monocytes assessed as decrease in TNF-alpha production at 10 uM incubated for 24 hrs by ELISA coupled qRT-PCR analysis relative to control; format: functional; set-up: scale not given: the % may be the effect or the level left
THP-1 [20] = assay: Antiinflammatory activity against LPS-activated PMA-differentiated human THP-1 macrophages assessed as increase in IL-4 production at 10 uM incubated for 24 hrs by ELISA coupled qRT-PCR analysis; format: functional, cell-based
THP-1 [21] = assay: Antiinflammatory activity in human THP-1 monocytes assessed as decrease in IL-1beta production at 10 uM incubated for 24 hrs by ELISA coupled qRT-PCR analysis relative to control; format: functional; set-up: scale not given: the % may be the effect or the level left
THP-1 [22] = assay: Antiinflammatory activity against LPS-activated human THP-1 monocytes assessed as decrease in IL-6 production at 10 uM incubated for 24 hrs by ELISA coupled qRT-PCR analysis; format: functional, cell-based
THP-1 [23] = assay: Antiinflammatory activity in PMA-differentiated human THP-1 macrophages assessed as reduction in IL-6 production at 1 to 10 uM incubated for 24 hrs by ELISA coupled qRT-PCR analysis relative to control; format: functional; set-up: scale not given: the % may be the effect or the level left; conditions: dose 1-10 µM
Cannabinoid receptor 2 = Cannabinoid receptor 2 (Homo sapiens, UniProt P34972); assay: Agonist activity at human CB2 receptor expressed in CHO-K1 cells assessed as inhibition of NKH-477 induced cAMP production incubated for 30 mins by luminescence based analysis; format: functional, cell-based
THP-1 [24] = assay: Antiinflammatory against LPS-activated human THP-1 monocytes assessed as decrease in TNF-alpha production at 1 to 10 uM incubated for 24 hrs in the presence of JTE907 by ELISA coupled qRT-PCR analysis; format: functional, cell-based; conditions: dose 1-10 µM
THP-1 [25] = assay: Antiinflammatory activity in human THP-1 monocytes assessed as decrease in IL-6 production at 1 to 10 uM incubated for 24 hrs in the presence of JTE907 by ELISA coupled qRT-PCR analysis; format: functional, cell-based; conditions: dose 1-10 µM
THP-1 [26] = assay: Antiinflammatory activity in PMA-differentiated human THP-1 macrophages assessed as increase in IL-10 production at 1 to 10 uM incubated for 24 hrs by ELISA coupled qRT-PCR analysis; format: functional, cell-based; conditions: dose 1-10 µM
THP-1 [27] = assay: Antiinflammatory activity in human THP-1 monocytes assessed as increase in IL-10 production at 1 to 10 uM incubated for 24 hrs in the presence of JTE907 by ELISA coupled qRT-PCR analysis; format: functional, cell-based; conditions: dose 1-10 µM
THP-1 [28] = assay: Antiinflammatory activity in PMA-differentiated human THP-1 macrophages assessed as increase in IL-10 production at 1 to 10 uM incubated for 24 hrs in the presence of JTE907 by ELISA coupled qRT-PCR analysis; format: functional, cell-based; conditions: dose 1-10 µM

Chain of Cannabinoid receptor 2 (P34972 whole entry): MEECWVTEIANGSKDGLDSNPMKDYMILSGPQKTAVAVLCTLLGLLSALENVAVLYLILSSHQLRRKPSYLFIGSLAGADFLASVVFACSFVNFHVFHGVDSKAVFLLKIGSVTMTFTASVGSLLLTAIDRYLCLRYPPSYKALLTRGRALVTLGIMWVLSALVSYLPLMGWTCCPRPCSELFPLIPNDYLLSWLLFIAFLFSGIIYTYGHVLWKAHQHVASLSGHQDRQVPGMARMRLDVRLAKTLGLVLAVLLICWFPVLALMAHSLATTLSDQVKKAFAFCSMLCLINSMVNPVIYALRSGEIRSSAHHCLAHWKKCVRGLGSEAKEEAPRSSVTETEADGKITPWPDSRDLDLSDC

**Q.** How did the Activity (THP-1 [1]) turn out when `O=C(NC1CCCCC1)c1cn(CCN2CCOCC2)c2cc(Cl)ccc2c1=O` was run?
**A.** Its Activity is “inactive”.

**Q.** What about the Activity (THP-1 [2]) of the same compound?
**A.** The Activity was “inactive”.

**Q.** What about the Activity (THP-1 [3]) of the same compound?
**A.** The Activity was 40%.

**Q.** And the Activity (THP-1 [4])?
**A.** The Activity was “Active”.

**Q.** What about the Activity (THP-1 [5]) of the same compound?
**A.** The Activity was “Active”.

**Q.** What about the Activity (THP-1 [6]) of the same compound?
**A.** Its Activity is “inactive”.

**Q.** What about the Activity (THP-1 [7]) of the same compound?
**A.** Its Activity is “inactive”.

**Q.** And the Activity (THP-1 [8])?
**A.** Its Activity is “inactive”.

**Q.** What about the Activity (THP-1 [9]) of the same compound?
**A.** Its Activity is “inactive”.

**Q.** And the Activity (THP-1 [10])?
**A.** The Activity was 60%.

**Q.** What about the Activity (THP-1 [11]) of the same compound?
**A.** Its Activity is “inactive”.

**Q.** And the Activity (THP-1 [12])?
**A.** Its Activity is “inactive”.

**Q.** What about the Activity (THP-1 [13]) of the same compound?
**A.** The Activity was “inactive”.

**Q.** And the Activity (THP-1 [14])?
**A.** The Activity was “inactive”.

**Q.** What about the Activity (THP-1 [15]) of the same compound?
**A.** The Activity was “Active”.

**Q.** What about the Activity (THP-1 [16]) of the same compound?
**A.** Its Activity is “Active”.

**Q.** What about the Activity (THP-1 [17]) of the same compound?
**A.** Its Activity is “inactive”.

**Q.** What about the Activity (THP-1 [18]) of the same compound?
**A.** Its Activity is “Active”.

**Q.** And the Activity (THP-1 [19])?
**A.** The Activity was 60%.

**Q.** What about the Activity (THP-1 [20]) of the same compound?
**A.** Its Activity is “Active”.

**Q.** What about the Activity (THP-1 [21]) of the same compound?
**A.** Its Activity is 60%.

**Q.** What about the Activity (THP-1 [22]) of the same compound?
**A.** The Activity was “Active”.

**Q.** `CCCCCNc1ccccc1C(=O)NC12CC3CC(CC(C3)C1)C2` was tested. Which Activity (THP-1 [23]) did it give?
**A.** The Activity was 50%.

**Q.** What about the Activity (THP-1 [3]) of the same compound?
**A.** The Activity was 50%.

**Q.** What about the Activity (THP-1 [4]) of the same compound?
**A.** The Activity was “Active”.

**Q.** What about the EC50 (Cannabinoid receptor 2) of the same compound?
**A.** The EC50 was 560 nM.

**Q.** And the Activity (THP-1 [5])?
**A.** The Activity was “Active”.

**Q.** And the Activity (THP-1 [24])?
**A.** Its Activity is “inactive”.

**Q.** And the Activity (THP-1 [10])?
**A.** The Activity was 40%.

**Q.** What about the Activity (THP-1 [25]) of the same compound?
**A.** Its Activity is “inactive”.

**Q.** And the Activity (THP-1 [26])?
**A.** Its Activity is “Active”.

**Q.** And the Activity (THP-1 [27])?
**A.** The Activity was “inactive”.

**Q.** And the Activity (THP-1 [15])?
**A.** The Activity was “Active”.

**Q.** What about the Activity (THP-1 [16]) of the same compound?
**A.** The Activity was “Active”.

**Q.** And the Activity (THP-1 [28])?
**A.** Its Activity is “inactive”.

**Q.** And the Activity (THP-1 [18])?
**A.** Its Activity is “Active”.

**Q.** What about the Activity (THP-1 [19]) of the same compound?
**A.** Its Activity is 50%.

**Q.** What about the Activity (THP-1 [21]) of the same compound?
**A.** Its Activity is 50%.

**Q.** What about the Activity (THP-1 [22]) of the same compound?
**A.** Its Activity is “Active”.
